Earlier results on one compound are cited in patent US20050042196A1, “Antimicrobial phenol containing cyanoacrylate compositions” (priority 2003, published 2005).

For the data set the following is noted: aqueous.

As for `[O-][Cl+3]([O-])([O-])O` [perchloric acid], the pKa (usually the pH at which an ionisable group is half protonated) is listed as −5.
